These results are taken from patent US20230122344A1, “ANTAGONISTS OF THE MUSCARINIC ACETYLCHOLINE RECEPTOR M4” (Vanderbilt University, priority 2019, published 2023).

This assay deals with T1, Human M4 (Homo sapiens, UniProt P08173).
T1 construct: expressed in transfected cells; host or cells: CHO-K1 (ATCC), co-transfected with chimeric G protein Gqi5
T1 sequence (P08173 1-479): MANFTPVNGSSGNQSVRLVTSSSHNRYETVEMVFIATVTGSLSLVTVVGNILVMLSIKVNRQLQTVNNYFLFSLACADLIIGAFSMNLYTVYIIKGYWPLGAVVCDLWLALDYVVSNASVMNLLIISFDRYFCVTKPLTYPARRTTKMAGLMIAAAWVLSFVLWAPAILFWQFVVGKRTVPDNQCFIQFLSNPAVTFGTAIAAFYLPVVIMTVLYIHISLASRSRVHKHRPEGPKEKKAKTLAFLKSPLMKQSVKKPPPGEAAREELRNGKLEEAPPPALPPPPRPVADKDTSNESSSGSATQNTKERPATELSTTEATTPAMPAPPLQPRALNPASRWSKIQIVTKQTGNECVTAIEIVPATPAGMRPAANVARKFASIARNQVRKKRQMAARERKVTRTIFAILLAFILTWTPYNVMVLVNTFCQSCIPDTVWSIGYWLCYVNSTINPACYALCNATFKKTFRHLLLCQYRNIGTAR
The experiment in a line: mAChR M4 cell-based functional assay (calcium flux, antagonism of EC80 acetylcholine response). The following applies: M4/Gqi5/CHO-K1 cells; for remaining activity at 30 µM: CHO-K1, % ACh maximum at 30 μM, read-out: Human M4 Emin; for IC50: decrease of response elicited by EC80 acetylcholine. As for the experimental part: Human or rat M4 cDNA, along with the chimeric G protein Gqi5, were transfected into Chinese hamster ovary (CHO-K1) cells purchased from the American Type Culture Collection using Lipofectamine2000. M4/Gqi5/CHO cells were grown in Ham's F-12 medium containing 10% heat-inactivated fetal bovine serum (FBS), 20 mM HEPES, 500 μg/mL G418 sulfate, and 200 μg/mL Hygromycin B.
For high throughput measurement of agonist-evoked increases in intracellular calcium, CHO-K1 cells stably expressing muscarinic receptors were plated in growth medium lacking G418 and hygromycin at 15,000 cells/20 μL/well in Greiner 384-well black-walled, tissue culture (TC)-treated, clear-bottom plates (VWR). Cells were incubated overnight at 37° C. and 5% CO2. The next day, cells were washed using an ELX 405 (BioTek) with assay buffer; the final volume was then aspirated to 20 μL. Next, 20 μL of a 2.3 μM stock of Fluo-4/acetoxymethyl ester (Invitrogen, Carlsbad, Calif.), prepared as a 2.3 mM stock in DMSO and mixed in a 1:1 ratio with 10% (w/v) Pluronic F-127 and diluted in assay buffer, was added to the wells and the cell plates were incubated for 50 min at 37° C. and 5% CO2. Dye was removed by washing with the ELX 405 and the final volume was aspirated to 20 μL. Compound master plates were formatted in a 10 point concentration-response curve (CRC) format (1:3 dilutions) in 100% DMSO with a starting concentration of 10 or 1 mM using a BRAVO liquid handler (Agilent). Test compound CRCs were then transferred to daughter plates (240 nL) using the Echo acoustic plate reformatter (Labcyte, Sunnyvale, Calif.) and then diluted into assay buffer (40 μL) to a 2× stock using a Thermo Fisher Combi (Thermo Fisher Scientific, Waltham, Mass.).
Calcium flux was measured using the Functional Drug Screening System (FDSS) 6000 or 7000 (Hamamatsu Corporation, Tokyo, Japan) as an increase in the fluorescent static ratio. Compounds were applied to cells (20 μL, 2×) using the automated system of the FDSS at 2 seconds into the protocol and the data were collected at 1 Hz. At 143 s, 10 μL of an EC20 concentration of the muscarinic receptor agonist acetylcholine was added (5×), followed by the addition of 12 μL of an EC80 concentration of acetylcholine at the 268 s time point (5×). Agonist activity was analyzed as a concentration-dependent increase in calcium mobilization upon compound addition. Positive allosteric modulator activity was analyzed as a concentration-dependent increase in the EC20 acetylcholine response. Antagonist activity was analyzed as a concentration-dependent decrease in the EC80 acetylcholine response; for the purposes of the tables herein, an IC50 (inhibitory concentration 50) was calculated as a concentration-dependent decrease of the response elicited by an EC80 concentration of acetylcholine. Concentration-response curves were generated using a four-parameter logistical equation in XLFit curve fitting software (IDBS, Bridgewater, N.J.) for Excel (Microsoft, Redmond, Wash.) or Prism (GraphPad Software, Inc., San Diego, Calif.) or the Dotmatics software platform (Dotmatics, Bishop's Stortford, UK).
Compounds were synthesized as described above. Activity (IC50 and Emin) was determined in the mAChR M4 cell-based functional assay as described above and the data are shown in Table 2.

With `[2H]C([2H])(C1CCOCC1)N1C[C@H]2C[C@H](Nc3cc(C)c(-c4cc(F)cc(F)c4F)nn3)C[C@H]2C1` [compound 37, (3aR,5s,6aS)-N-(5-methyl-6-(2,3,5-trifluorophenyl)pyridazin-3-yl)-2-((tetrahydro-2H-pyran-4-yl)methyl-d2)octahydrocyclopenta[c]pyrrol-5-amine], the remaining activity at 30 µM is 3% and the IC50 stood at 0.69 nM.
For `Fc1ccc(C(F)(F)F)c(-c2cc(C(F)F)c(N[C@H]3C[C@@H]4CN(CC5CCOCC5)C[C@@H]4C3)nn2)c1` [compound 87, (3aR,5s,6aS)-N-(4-(difluoromethyl)-6-(5-fluoro-2-(trifluoromethyl)phenyl)pyridazin-3-yl)-2-((tetrahydro-2H-pyran-4-yl)methyl)octahydrocyclopenta[c]pyrrol-5-amine], the remaining activity at 30 µM worked out at 3% and the IC50 is 4.9 nM.
For `Fc1cc(F)c(F)c(-c2nnc(N[C@H]3C[C@@H]4CN(CC5CCOCC5)C[C@@H]4C3)cc2C(F)F)c1` [compound 41, (3aR,5s,6aS)-N-(5-(difluoromethyl)-6-(2,3,5-trifluorophenyl)pyridazin-3-yl)-2-((tetrahydro-2H-pyran-4-yl)methyl)octahydrocyclopenta[c]pyrrol-5-amine] the same measures were 3% and 0.33 nM.
With `[2H]C([2H])(C1CCOCC1)N1C[C@H]2C[C@H](Nc3nnc(-c4ccc(F)cc4)c(C)c3C)C[C@H]2C1` [compound 70, (3aR,5s,6aS)-N-(6-(4-fluorophenyl)-4,5-dimethylpyridazin-3-yl)-2-((tetrahydro-2H-pyran-4-yl)methyl-d2)octahydrocyclopenta[c]pyrrol-5-amine], the remaining activity at 30 µM came out at 11% and the IC50 came to 24.1 nM.
Regarding `COc1cc(-c2ccc(F)cc2)nnc1N[C@H]1C[C@@H]2CN(CC3CCOCC3)C[C@@H]2C1` [compound 3, (3aR,5s,6aS)-N-(6-(4-fluorophenyl)-4-methoxypyridazin-3-yl)-2-((tetrahydro-2H-pyran-4-yl)methyl)octahydrocyclopenta[c]pyrrol-5-amine], the remaining activity at 30 µM came to 5% and the IC50 is 48.4 nM.
Consider `Fc1cc(F)c(F)c(-c2nnc(N[C@H]3C[C@@H]4CN(CC5CCCOC5)C[C@@H]4C3)cc2C(F)F)c1` (single isomer, unassigned) [compound 49], for which the IC50 came out at 1.64 nM. Where the note is “% ACh maximum at 30 μM”, the “Human M4 Emin” value stood at 2%.
Turning to `Fc1ccc(F)c(-c2cc(C(F)F)c(N[C@H]3C[C@@H]4CN(C[C@@H]5COCCO5)C[C@@H]4C3)nn2)c1` [compound 80, (3aR,5S,6aS)-2-(((R)-1,4-dioxan-2-yl)methyl)-N-(4-(difluoromethyl)-6-(2,5-difluorophenyl)pyridazin-3-yl)octahydrocyclopenta[c]pyrrol-5-amine], the remaining activity at 30 µM was 4% and the IC50 was found to be 5 nM.
Consider `[2H]C([2H])(C1CCOCC1)N1C[C@H]2C[C@H](Nc3cc(C4(C(F)(F)F)CC4)c(-c4cc(F)cc(F)c4F)nn3)C[C@H]2C1` [compound 39, (3aR,5s,6aS)-2-((tetrahydro-2H-pyran-4-yl)methyl-d2)-N-(5-(1-(trifluoromethyl)cyclopropyl)-6-(2,3,5-trifluorophenyl)pyridazin-3-yl)octahydrocyclopenta[c]pyrrol-5-amine], for which the remaining activity at 30 µM turned out to be 3% and the IC50 worked out at 17.9 nM.
For `[2H]C([2H])(C1CCOCC1)N1C[C@H]2C[C@H](Nc3nnc(-c4ccc5nn(C)cc5c4)cc3C)C[C@H]2C1` [compound 22, (3aR,5s,6aS)-N-(4-methyl-6-(2-methyl-2H-indazol-5-yl)pyridazin-3-yl)-2-((tetrahydro-2H-pyran-4-yl)methyl-d2)octahydrocyclopenta[c]pyrrol-5-amine], the remaining activity at 30 µM amounted to 4% and the IC50 was 1.82 nM.

Usually IC50 stands for the midpoint of a concentration-inhibition curve.
